Experiments:
C. auris AOX [1] = molecular target: T1, C. auris AOX (Candidozyma auris, UniProt A0A0L0NPQ3); assay: oxygen consumption of NDH-2/AOX proteoliposomes (Oroboros oxygraph), dose-response; type: biochemical
T1 construct: twin-strep tag (pET15b.TS, pTS.CaAOX) kept; from E. coli FN102; in self-assembled proteoliposomes

C. albicans AOX2 [2] = molecular target: T2, C. albicans AOX2 (Candida albicans, UniProt Q9UV71); assay: as above; type: biochemical
T2 construct: twin-strep tag (pET15b.TS, pTS.CalbAOX2) kept; from E. coli FN102; in self-assembled proteoliposomes
T2 sequence (Q9UV71 27-365): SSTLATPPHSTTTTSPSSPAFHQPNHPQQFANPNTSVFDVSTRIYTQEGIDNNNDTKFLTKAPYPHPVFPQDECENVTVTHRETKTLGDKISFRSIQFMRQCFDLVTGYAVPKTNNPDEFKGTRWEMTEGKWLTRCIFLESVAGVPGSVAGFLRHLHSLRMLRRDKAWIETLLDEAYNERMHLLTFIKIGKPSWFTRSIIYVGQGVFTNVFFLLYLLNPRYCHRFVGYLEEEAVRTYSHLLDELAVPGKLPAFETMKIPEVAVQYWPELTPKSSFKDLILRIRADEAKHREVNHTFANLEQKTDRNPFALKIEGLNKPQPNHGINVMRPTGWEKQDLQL

C. auris AOX [3] = molecular target: T1, C. auris AOX; assay: NADH oxidation at […] nm in NDH-2/AOX proteoliposomes, dose-response; type: biochemical
C. albicans AOX2 [4] = molecular target: T2, C. albicans AOX2; assay: as above; type: biochemical
NDH-2 = molecular target: T3, NDH-2 (Caldalkalibacillus thermarum, UniProt F5L3B8); assay: NADH oxidation at […] nm; type: biochemical; details: 50 mM MOPS pH 7.5, 250 uM Q1, 300 uM NADH
T3 construct: gene CathTA2_0279; His-tagged, from E. coli C41 (plasmid pTRCndh2); predicted mass 44 kDa
T3 sequence (F5L3B8 1-399): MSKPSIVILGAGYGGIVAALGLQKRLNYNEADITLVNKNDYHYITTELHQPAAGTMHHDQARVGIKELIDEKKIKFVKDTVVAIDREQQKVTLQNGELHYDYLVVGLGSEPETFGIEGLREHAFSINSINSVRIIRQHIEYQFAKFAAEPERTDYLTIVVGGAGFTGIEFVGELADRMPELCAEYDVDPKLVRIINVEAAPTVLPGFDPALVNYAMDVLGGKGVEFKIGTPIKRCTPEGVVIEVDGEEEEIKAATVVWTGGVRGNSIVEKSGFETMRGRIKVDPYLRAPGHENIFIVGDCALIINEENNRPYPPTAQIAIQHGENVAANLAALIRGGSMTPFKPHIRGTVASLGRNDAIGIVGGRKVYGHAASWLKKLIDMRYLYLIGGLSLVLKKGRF

[5] = tested on: COc1c(O)c(C)c(C/C=C(\C)CC/C=C(\C)CC/C=C(\C)CC/C=C(\C)CC/C=C(\C)CC/C=C(\C)CC/C=C(\C)CC/C=C(\C)CC/C=C(\C)CCC=C(C)C)c(O)c1OC; assay: purified protein; details: 65 mM MOPS pH 7.5, 300 uM NADH, excess NDH-2, Q10 concentration in the lipid phase
purified protein = substrate: COc1c(O)c(C)c(C/C=C(\C)CC/C=C(\C)CC/C=C(\C)CC/C=C(\C)CC/C=C(\C)CC/C=C(\C)CC/C=C(\C)CC/C=C(\C)CC/C=C(\C)CCC=C(C)C)c(O)c1OC; assay: purified protein; type: biochemical, Candida albicans; details: 65 mM MOPS pH 7.5, 300 uM NADH, excess NDH-2, Q10 concentration in the lipid phase

T1 sequence (A0A0L0NPQ3 25-333 limits assumed): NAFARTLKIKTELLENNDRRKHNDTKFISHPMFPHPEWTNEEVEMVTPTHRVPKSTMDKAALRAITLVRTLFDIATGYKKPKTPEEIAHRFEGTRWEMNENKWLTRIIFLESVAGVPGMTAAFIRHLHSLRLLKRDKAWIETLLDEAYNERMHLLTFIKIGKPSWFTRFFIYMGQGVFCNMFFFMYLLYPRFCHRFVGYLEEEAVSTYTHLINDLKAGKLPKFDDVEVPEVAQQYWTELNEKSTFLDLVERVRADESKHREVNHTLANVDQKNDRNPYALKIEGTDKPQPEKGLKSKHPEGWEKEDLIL

O=C(NO)c1ccccc1O [SHAM]
IC50 (C. auris AOX [1]): 5 ± 0.6 mM
IC50 (C. albicans AOX2 [2]): 3.5 ± 0.7 mM

C/C(=C\Cc1c(O)c(Cl)c(C)c(C=O)c1O)CC/C=C(\C)[C@@H]1CC(=O)C(C)(C)O1 [AF, Ascofuranone]
IC50 (C. auris AOX [3]): 129 ± 18 nM
IC50 (C. albicans AOX2 [4]): 213 ± 27 nM

NC(=O)C1=CN([C@@H]2O[C@H](COP(=O)(O)OP(=O)(O)OC[C@H]3O[C@@H](n4cnc5c(N)ncnc54)[C@H](O)[C@@H]3O)[C@@H](O)[C@H]2O)C=CC1 [NADH]
NADH oxidation at 340 nm (NDH-2): measured spectrophotometrically by measuring the oxidation of NADH at A340 nm

C. auris AOX (Candidozyma auris)
Km [5]: 7.3 ± 1.4 mM
kcat [5]: 108 ± 3 s⁻¹

CC(C)=CCC/C(C)=C/Cc1c(O)c(Cl)c(C)c(C=O)c1O [CB, colletochlorin B]
IC50 (C. auris AOX [3]): 55 ± 10 nM
IC50 (C. albicans AOX2 [4]): 53 ± 16 nM

B1: C. albicans AOX2 (Candida albicans) (protein)
chain: T2 sequence (Q9UV71 27-365)
notes: twin-strep tag (pET15b.TS, pTS.CalbAOX2) kept; from E. coli FN102; in self-assembled proteoliposomes
Km (purified protein): 6.3 ± 1.3 mM
kcat (purified protein): 404 ± 51 s⁻¹

From PMC8292455, “Kinetic characterisation and inhibitor sensitivity of Candida albicans and Candida auris recombinant AOX expressed in a self-assembled proteoliposome system” (Scientific Reports, 2021)
